Tested on: NA immobilized magnetic beads (NA from C. perfringens)
Type: binding, Clostridium perfringens

SMILES	Behaviour in NA-MB ligand fishing of the artificial mixture
O=c1cc(-c2ccc(O)c(O)c2)oc2cc(O)cc(O)c12 [luteolin]	specific inhibitors of NA
COc1ccc2c3c1O[C@H]1C[C@@H](O)C=C[C@@]31CCN(C)C2 [galantamine]	non-inhibitor of NA
COc1cc(-c2oc3cc(O)cc(O)c3c(=O)c2O)ccc1O [isorhamnetin]	started to release from the enzyme when NA-MB was extracted using 50% organic solvent
COc1cc2c(cc1O)CC[n+]1cc3c(OC)c(OC)ccc3cc1-2 [jatrorrhizine]	gradually washed out from M-S2 to M-S6
O=c1c(O)c(-c2ccc(O)c(O)c2)oc2cc(O)cc(O)c12 [Quercetin]	specific inhibitors of NA
O=c1cc(-c2ccc(O)c(O)c2)oc2cc(O[C@@H]3O[C@H](CO)[C@@H](O)[C@H](O)[C@H]3O)cc(O)c12 [Galuteolin, galuteolin]	started to release from the enzyme when NA-MB was extracted using 50% organic solvent
